Measurements as given in patent US8685969B2, “Carboline carboxamide compounds useful as kinase inhibitors” (Bristol-Myers Squibb Company, priority 2010, dated 2014).

Key:
Ramos RA1 B cells = test: Ramos FLIPR Assay (intracellular calcium after anti-human IgM stimulation); type: cell-based; conditions: Ramos RA1 B cells stimulated with goat anti-human IgM 2.5 μg/mL; peak calcium; read-out: IC50 for Inhibition of Ramos FLIPR assay
Procedure: Ramos RA1 B cells (ATCC CRL-1596) at a density of 2×10^6 cells/ml in RPMI minus phenol red (Invitrogen 11835-030) and 50 mM HEPES (Invitrogen 15630-130) containing 0.1% BSA (Sigma A8577) were added to one half volume of calcium loading buffer (BD bulk kit for probenecid sensitive assays, #640177) and incubated at room temperature in the dark for 1 hour. Dye-loaded cells were pelleted (Beckmann GS-CKR, 1200 rpm, RT, 5 minutes) and resuspended in RT RPMI minus phenol red with 50 mM HEPES and 10% FBS to a density of 1×10^6 cells/ml. 150 μl aliquots (150,000/well) were plated into 96 well poly-D-lysine coated assay plates (BD 35 4640) and briefly centrifuged (Beckmann GS-CKR 800 rpm, 5 minutes, without brake). 50 μl compound dilutions in 0.4% DMSO/RPMI minus phenol red+50 mM HEPES+10% FBS were added to the wells and the plate was incubated at RT in the dark for 1 hour. Assay plate was briefly centrifuged as above prior to measuring calcium levels.
Using the FLIPR1 (Molecular devices), cells were stimulated by adding goat anti-human IgM (Invitrogen AHI0601) to 2.5 μg/mL. Changes in intracellular calcium concentrations were measured for 180 seconds and percent inhibition was determined relative to peak calcium levels seen in the presence of stimulation only.

human recombinant Btk = molecular target: T1, human recombinant Btk (Homo sapiens, UniProt Q06187); test: Human Recombinant Btk Enzyme Assay; type: biochemical; conditions: human recombinant Btk 1 nM, ATP 20 μM, 60 min room temperature; read-out: IC50 for Inhibition of Btk
T1 construct: purchased Invitrogen Corporation
T1 sequence (Q06187 whole entry): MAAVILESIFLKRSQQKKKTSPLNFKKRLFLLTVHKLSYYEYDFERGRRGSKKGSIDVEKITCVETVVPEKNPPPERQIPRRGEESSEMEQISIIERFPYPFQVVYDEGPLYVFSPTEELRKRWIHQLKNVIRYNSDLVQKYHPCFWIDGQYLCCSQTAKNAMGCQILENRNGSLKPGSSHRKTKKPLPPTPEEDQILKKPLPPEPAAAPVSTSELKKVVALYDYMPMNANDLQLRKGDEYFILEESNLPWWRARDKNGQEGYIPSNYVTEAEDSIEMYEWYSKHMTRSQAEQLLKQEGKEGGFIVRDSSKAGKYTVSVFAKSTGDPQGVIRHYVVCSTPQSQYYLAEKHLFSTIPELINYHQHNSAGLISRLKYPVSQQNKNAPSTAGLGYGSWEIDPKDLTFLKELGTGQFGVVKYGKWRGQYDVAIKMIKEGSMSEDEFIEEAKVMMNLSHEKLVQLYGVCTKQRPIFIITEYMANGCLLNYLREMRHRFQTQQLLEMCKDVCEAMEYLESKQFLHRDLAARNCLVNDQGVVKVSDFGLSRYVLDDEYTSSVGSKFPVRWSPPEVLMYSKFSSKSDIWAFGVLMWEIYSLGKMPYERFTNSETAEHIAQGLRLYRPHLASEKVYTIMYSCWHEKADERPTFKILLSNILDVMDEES
Procedure: Human Recombinant Btk Enzyme Assay
To V-bottom 384-well plates were added test compounds, human recombinant Btk (1 nM, Invitrogen Corporation), fluoresceinated peptide (1.5 μM), ATP (20 μM), and assay buffer (20 mM HEPES pH 7.4, 10 mM MgCl2, 0.015% Brij35 and 4 mM DTT in 1.6% DMSO), with a final volume of 30 μL. After incubating at room temperature for 60 min, the reaction was terminated by adding 45 μl of 35 mM EDTA to each sample. The reaction mixture was analyzed on the Caliper LABCHIP® 3000 (Caliper, Hopkinton, Mass.) by electrophoretic separation of the fluorescent substrate and phosphorylated product. Inhibition data were calculated by comparison to no enzyme control reactions for 100% inhibition and no inhibitor controls for 0% inhibition. Dose response curves were generated to determine the concentration required inhibiting 50% of kinase activity (IC50). Compounds were dissolved at 10 mM in dimethylsulfoxide (DMSO) and evaluated at eleven concentrations.
Using this assay, the IC50 values of the following compounds were determined.

Row | IC50 (Ramos RA1 B cells) [nM] | IC50 (human recombinant Btk) [nM] | SMILES
1 | 856 |  | Cc1c(-c2cnc(C(N)=O)c3[nH]c4cc5c(cc4c23)OCO5)cccc1N1Cc2ccc(Cl)cc2C1=O [Example 79]
2 | 1030 |  | NC(=O)c1ncc(-c2cccc(NC(=O)N3Cc4ccc(F)cc4C3)c2F)c2c1[nH]c1cc(N3CCOCC3)ccc12 [Example 73]
3 | 71 | 3 | Cc1c(NC(=O)N2Cc3ccc(F)cc3C2)cccc1-c1cnc(C(N)=O)c2[nH]c3cc(N4CCOCC4)ccc3c12 [Example 71]
4 |  | 32 | COc1ccc2[nH]c3c(C(N)=O)ncc(-c4ccccc4F)c3c2c1 [Example 56]
5 | 81 |  | NC(=O)c1ncc(-c2cccc(N3Cc4ccc(Cl)cc4C3=O)c2F)c2c1[nH]c1cc(N3CCOCC3)ccc12 [Example 77]
6 | 16 | 3 | Cc1c(-c2cnc(C(N)=O)c3[nH]c4cc(C(C)O)ccc4c23)cccc1-n1cnc2ccccc2c1=O (stereo not drawn) [Example 30, 7-(1-Hydroxyethyl)-4-(2-methyl-3-(4-oxoquinazolin-3(4H)-yl)phenyl)-9H-pyrido[3,4-b]indole-1-carboxamide]
7 |  | 65 | NC(=O)c1ncc(-c2ccccc2F)c2c1[nH]c1ccc(F)cc12 [Example 54]
8 | 15 |  | Cc1c(-c2cnc(C(N)=O)c3[nH]c4cc(N5CCOCC5)ccc4c23)cccc1-n1cnc2c(F)cccc2c1=O [Example 97]
9 | 19 |  | Cc1c(-c2nnc(C(N)=O)c3[nH]c4cc(C(C)(C)O)ccc4c23)cccc1N1Cc2ccc(Cl)cc2C1=O [Example 100]
10 | 96 | 14 | Cc1c(-c2ccc(C(N)=O)c3[nH]c4cnc(C(C)(C)O)cc4c23)cccc1-n1cnc2cccc(F)c2c1=O [Example 110]
11 | 84 |  | Cc1c(-c2cnc(C(N)=O)c3[nH]c4cc(OCCO)ccc4c23)cccc1-n1cnc2ccc(F)cc2c1=O [Example 90]
12 |  | 8 | Cc1c(NC(=O)c2ccc(F)cc2)cccc1-c1cnc(C(N)=O)c2[nH]c3cc(N4CCOCC4)ccc3c12 [Example 64]
13 |  | 2 | COCCOc1ccc2c(c1)[nH]c1c(C(N)=O)ncc(-c3cccc(N4Cc5ccc(Cl)cc5C4=O)c3C)c12 [Example 9, 4-(3-(6-Chloro-1-oxoisoindolin-2-yl)-2-methylphenyl)-7-(2-methoxyethoxy)-9H-pyrido[3,4-b]indole-1-carboxamide]
14 | 71 |  | COc1ccc2c(c1)C(=O)N(c1cccc(-c3cnc(C(N)=O)c4[nH]c5cc(C(C)O)ccc5c34)c1C)C2 (stereo not drawn) [Example 31, 7-(1-Hydroxyethyl)-4-(3-(6-methoxy-1-oxoisoindolin-2-yl)-2-methylphenyl)-9H-pyrido[3,4-b]indole-1-carboxamide]
15 | 1420 |  | COCCOc1ccc2c(c1)[nH]c1c(C(N)=O)ncc(-c3cccc(N4Cc5ccc(F)cc5C4=O)c3F)c12 [Example 85]
16 |  | 8 | Cc1c(-c2nnc(C(N)=O)c3[nH]c4cc(OCCO)ccc4c23)cccc1N1Cc2ccc(Cl)cc2C1=O [Example 99]
17 |  | 85 | Cc1ccc(C(=O)Nc2cccc(-c3cnc(C(N)=O)c4[nH]c5cc(N6CCOCC6)ccc5c34)c2F)nc1 [Example 60]
18 | 1380 | 57 | COc1ccc2c(c1)C(=O)N(c1cccc(-c3nnc(C(N)=O)c4[nH]c5cc(C(C)=O)ccc5c34)c1C)C2 [Example 35, 7-Acetyl-1-(3-(6-methoxy-1-oxoisoindolin-2-yl)-2-methylphenyl)-5H-pyridazino[4,5-b]indole-4-carboxamide]
19 |  | 43 | CN(C)c1ccc(C(=O)Nc2cccc(-c3cnc(C(N)=O)c4[nH]c5cc(C(=O)N6CCOCC6)ccc5c34)c2F)cc1 [Example 55]
20 |  | 3 | Cc1c(-c2cnc(C(N)=O)c3[nH]c4cc(OCCO)ccc4c23)cccc1-n1cnc2ccccc2c1=O [Example 11, 7-(2-Hydroxyethoxy)-4-(2-methyl-3-(4-oxoquinazolin-3(4H)-yl)phenyl)-9H-pyrido[3,4-b]indole-1-carboxamide]
21 | 190 | 14 | COCCOc1ccc2c(c1)[nH]c1c(C(N)=O)nc(C)c(-c3cccc(-n4cnc5ccccc5c4=O)c3C)c12 [Example 37, 7-(2-Methoxyethoxy)-3-methyl-4-(2-methyl-3-(4-oxoquinazolin-3(4H)-yl)phenyl)-9H-pyrido[3,4-b]indole-1-carboxamide]
22 |  | 7 | Cc1c(-c2nnc(C(N)=O)c3[nH]c4cc(OCCO)ccc4c23)cccc1-n1cnc2ccccc2c1=O [Example 34, 7-(2-Hydroxyethoxy)-1-(2-methyl-3-(4-oxoquinazolin-3(4H)-yl)phenyl)-5H-pyridazino[4,5-b]indole-4-carboxamide]
23 | 56 |  | Cc1c(-c2cnc(C(N)=O)c3[nH]c4cc(N5CCOCC5)ccc4c23)cccc1N1Cc2ccc(Cl)cc2C1=O [Example 92]
24 |  | 7 | COCCOc1ccc2c(c1)[nH]c1c(C(N)=O)nnc(-c3cccc(N4Cc5ccc(Cl)cc5C4=O)c3C)c12 [Example 32, 1-(3-(6-Chloro-1-oxoisoindolin-2-yl)-2-methylphenyl)-7-(2-methoxyethoxy)-5H-pyridazino[4,5-b]indole-4-carboxamide]
25 | > 500 | 6 | Cc1c(-c2ncc(C(N)=O)c3[nH]c4cc(C(C)(C)O)ccc4c23)cccc1N1Cc2ccc(F)cc2C1=O [Example 41, 1-(3-(6-Fluoro-1-oxoisoindolin-2-yl)-2-methylphentl)-7-(2-hydroxypropan-2-yl)-5H-pyrido[4,3-b]indole-4-carboxamide]
26 |  | 3 | COc1ccc2c(c1)C(=O)N(c1cccc(-c3nnc(C(N)=O)c4[nH]c5cc(C(C)(C)O)ccc5c34)c1C)C2 [Example 36, 7-(2-Hydroxypropan-2-yl)-1-(3-(6-methoxy-1-oxoisoindolin-2-yl)-2-methylphenyl)-5H-pyridazino[4,5-b]indole-4-carboxamide]
27 | 294 | 23 | Cc1c(-c2ccc(C(N)=O)c3[nH]c4cc(C(=O)N(C)C)ncc4c23)cccc1-n1cnc2ccccc2c1=O [Example 117]
28 | > 1000 | 521 | Cc1c(-c2ccc(C(N)=O)c3[nH]c4c(c23)CNCC4)cccc1-n1cnc2ccccc2c1=O [Example 42, 9-(2-Methyl-3-(4-oxoquinazolin-3(4H)-yl)phenyl)-2,3,4,5-tetrahydro-1H-pyrido[4,3-b]indole-6-carboxamide]
29 | 63 | 7 | COCCOc1ccc2c(c1)[nH]c1c(C(N)=O)ncc(-c3cccc(-n4cnc5c(F)cccc5c4=O)c3C)c12 [Example 87]
30 | 1080 |  | COCCOc1ccc2c(c1)[nH]c1c(C(N)=O)ncc(-c3cccc(N4Cc5ccc(OC)cc5C4=O)c3F)c12 [Example 82]
